Reference: patent US20200190087A1 (priority 2016, published 2020)
Read-outs that look alike come from different tables or passages of the source.

How the values were obtained:
[1] = target: Human α2δ-1 subunit of Cav2.2 calcium channel (Homo sapiens, UniProt P54289); assay: Human α2δ-1 subunit of Cav2.2 calcium channel assay ([3H]-Gabapentin binding); conditions: human α2δ-1 enriched membranes, 15 nM [3H]-Gabapentin, binding expressed as Ki; read-out: α2δ1 binding activity
Description: Human α2δ-1 Subunit of Cav2.2 Calcium Channel Assay
Human α2δ-1 enriched membranes (2.5 μg) were incubated with 15 nM of radiolabeled [3H]-Gabapentin in assay buffer containing Hepes-KOH 10 mM, pH 7.4. NSB (non specific binding) was measured by adding 10 μM pregabalin. The binding of the test compound was measured at five different concentrations. After 60 min incubation at 27° C., binding reaction was terminated by filtering through Multiscreen GF/C (Millipore) presoaked in 0.5% polyethyleneimine in Vacuum Manifold Station, followed by 3 washes with ice-cold filtration buffer containing 50 mM Tris-HCl, pH 7.4. Filter plates were dried at 60° C. for 1 hour and 30 μl of scintillation cocktail were added to each well before radioactivity reading. Readings were performed in a Trilux 1450 Microbeta radioactive counter (Perkin Elmer).

human μ-opioid receptor = target: T1, human μ-opioid receptor (Homo sapiens, UniProt P35372); assay: Human μ-opioid receptor radioligand assay ([3H]-DAMGO); assay type: binding
T1 construct: expressed in transfected cells; host or cells: CHO-K1
Description: Human μ-Opioid Receptor Radioligand Assay
To investigate binding properties of test compounds to human μ-opioid receptor, transfected CHO-K1 cell membranes and [^3H]-DAMGO (Perkin Elmer, ES-542-C), as the radioligand, were used. The assay was carried out with 20 μg of membrane suspension, 1 nM of [^3H]-DAMGO in either absence or presence of either buffer or 10 μM Naloxone for total and non-specific binding, respectively. Binding buffer contained Tris-HCl 50 mM, MgCl2 5 mM at pH 7.4. Plates were incubated at 27° C. for 60 minutes. After the incubation period, the reaction mix was then transferred to MultiScreen HTS, FC plates (Millipore), filtered and plates were washed 3 times with ice-cold 10 mM Tris-HCL (pH 7.4). Filters were dried and counted at approximately 40% efficiency in a MicroBeta scintillation counter (Perkin-Elmer) using EcoScint liquid scintillation cocktail. Preferably, transfected CHO-K1 cell membranes (20 μg) were incubated with 1 nM of [^3H]-DAMGO in assay buffer containing Tris-HCl 50 mM, MgCl2 5 mM at pH 7.4. NBS (non-specific binding) was measured by adding 10 μM Naloxone. The binding of the test compound was measured at five different concentrations. Plates were incubated at 27° C. for 60 minutes. After the incubation period, the reaction mix was then transferred to MultiScreen HTS, FC plates (Millipore), filtered and plates were washed 3 times with ice-cold 10 mM Tris-HCL (pH 7.4). Filters were dried and counted at approximately 40% efficiency in a MicroBeta scintillation counter (Perkin-Elmer) using EcoScint liquid scintillation cocktail.

[2] = transfected CHO-K1 cell membranes, 1 nM [3H]-DAMGO, binding expressed as Ki, read-out: Mu binding activity

Human α2δ-1 subunit of Cav2.2 calcium channel, sequence (P54289 25-1103): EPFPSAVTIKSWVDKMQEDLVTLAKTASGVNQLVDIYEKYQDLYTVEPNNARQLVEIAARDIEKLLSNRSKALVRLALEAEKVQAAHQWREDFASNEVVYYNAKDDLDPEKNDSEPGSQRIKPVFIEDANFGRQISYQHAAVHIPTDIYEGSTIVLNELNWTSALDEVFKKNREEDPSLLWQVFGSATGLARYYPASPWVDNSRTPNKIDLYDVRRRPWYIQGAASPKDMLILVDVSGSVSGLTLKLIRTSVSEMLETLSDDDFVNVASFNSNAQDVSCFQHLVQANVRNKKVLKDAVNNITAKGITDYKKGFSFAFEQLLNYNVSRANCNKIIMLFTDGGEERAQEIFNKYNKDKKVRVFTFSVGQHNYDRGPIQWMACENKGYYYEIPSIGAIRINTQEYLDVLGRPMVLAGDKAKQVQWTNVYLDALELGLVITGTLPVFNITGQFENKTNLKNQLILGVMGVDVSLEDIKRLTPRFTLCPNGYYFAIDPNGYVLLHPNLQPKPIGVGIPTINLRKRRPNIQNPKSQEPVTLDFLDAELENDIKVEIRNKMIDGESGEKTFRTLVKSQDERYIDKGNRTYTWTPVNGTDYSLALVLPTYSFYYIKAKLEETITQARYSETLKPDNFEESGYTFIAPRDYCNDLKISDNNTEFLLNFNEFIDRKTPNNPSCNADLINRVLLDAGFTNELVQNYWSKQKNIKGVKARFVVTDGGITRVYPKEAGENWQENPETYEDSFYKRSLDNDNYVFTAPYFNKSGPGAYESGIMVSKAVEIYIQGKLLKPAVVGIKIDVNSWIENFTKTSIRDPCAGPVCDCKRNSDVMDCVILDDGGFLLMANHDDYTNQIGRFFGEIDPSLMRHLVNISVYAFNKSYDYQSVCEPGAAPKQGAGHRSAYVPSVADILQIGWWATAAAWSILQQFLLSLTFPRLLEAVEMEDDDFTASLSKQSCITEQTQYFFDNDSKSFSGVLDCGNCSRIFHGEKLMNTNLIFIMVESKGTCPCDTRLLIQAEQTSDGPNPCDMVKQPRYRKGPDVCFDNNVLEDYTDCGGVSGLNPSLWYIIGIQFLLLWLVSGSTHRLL
T1 sequence (P35372 whole entry): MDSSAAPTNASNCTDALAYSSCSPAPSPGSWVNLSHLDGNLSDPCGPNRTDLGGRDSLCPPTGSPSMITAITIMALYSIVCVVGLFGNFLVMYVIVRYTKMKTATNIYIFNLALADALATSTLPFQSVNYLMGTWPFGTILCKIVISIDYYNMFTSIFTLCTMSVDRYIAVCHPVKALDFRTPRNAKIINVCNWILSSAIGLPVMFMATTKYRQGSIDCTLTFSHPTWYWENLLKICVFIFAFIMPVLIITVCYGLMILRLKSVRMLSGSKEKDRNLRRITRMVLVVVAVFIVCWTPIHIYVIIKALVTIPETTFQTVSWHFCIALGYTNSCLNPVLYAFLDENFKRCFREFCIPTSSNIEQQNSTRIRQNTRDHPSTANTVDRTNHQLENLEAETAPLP

Compound `CCOc1ccc(-n2nc3c(CCNCc4ccccc4)nnc(C)c3c2C)c(F)c1` [Ex 40, N-Benzyl-2-(2-(4-ethoxy-2-fluorophenyl)-3,4-dimethyl-2H-pyrazolo[3,4-d]pyridazin-7-yl)ethan-1-amine] has a Ki [1] of no less than 5000 nM and a Ki (human μ-opioid receptor; [2]) greater than 500 nM.

Work on `CCOc1ccc(-n2nc3c(CCNCCc4ccccc4)nnc(C)c3c2C)c(F)c1` [Ex 41, 2-(2-(4-Ethoxy-2-fluorophenyl)-3,4-dimethyl-2H-pyrazolo[3,4-d]pyridazin-7-yl)-N-phenethylethan-1-amine] yielded a Ki [1] of no less than 5000 nM and a Ki (human μ-opioid receptor; [2]) greater than 500 nM.

Compound `CCOc1ccc(-n2nc3c(C4CCN(CCc5ccccn5)CC4)nnc(C)c3c2C)c(F)c1` [Ex 42, 2-(4-Ethoxy-2-fluorophenyl)-3,4-dimethyl-7-(1-(2-(pyridin-2-yl)ethyl)piperidin-4-yl)-2H-pyrazolo[3,4-d]pyridazine] has a Ki [1] of 500 to 3000 nM and a Ki (human μ-opioid receptor; [2]) greater than 500 nM.

In the case of `CCOc1ccc(-n2nc3c(C4CCN(CCc5ccccc5F)CC4)nnc(C)c3c2C)c(F)c1` [Ex 43, 2-(4-Ethoxy-2-fluorophenyl)-7-(1-(2-fluorophenethyl)piperidin-4-yl)-3,4-dimethyl-2H-pyrazolo[3,4-d]pyridazine], the Ki [1] is reported as 500 to 3000 nM and the Ki (human μ-opioid receptor) is reported as less than 500 nM.

In the case of `CCOc1ccc(-n2nc3c(C4CCN(CCc5cccc(F)c5)CC4)nnc(C)c3c2C)c(F)c1` [Ex 44, 2-(4-Ethoxy-2-fluorophenyl)-7-(1-(3-fluorophenethyl)piperidin-4-yl)-3,4-dimethyl-2H-pyrazolo[3,4-d]pyridazine], the Ki [1] is reported as 500 to 3000 nM and the Ki (human μ-opioid receptor) is reported as less than 500 nM.

For `CCOc1ccc(-n2nc3c(C4CCN(CCc5cccc(OC)c5)CC4)nnc(C)c3c2C)c(F)c1` [Ex 45, 2-(4-Ethoxy-2-fluorophenyl)-7-(1-(3-methoxyphenethyl)piperidin-4-yl)-3,4-dimethyl-2H-pyrazolo[3,4-d]pyridazine], the Ki [1] was 500 to 3000 nM and the Ki (human μ-opioid receptor; [2]) was greater than 500 nM.

`CCOc1ccc(-n2nc3c(C4CCN(CCc5ccc(F)cc5)CC4)nnc(C)c3c2C)c(F)c1` [Ex 46, 2-(4-Ethoxy-2-fluorophenyl)-7-(1-(4-fluorophenethyl)piperidin-4-yl)-3,4-dimethyl-2H-pyrazolo[3,4-d]pyridazine] showed a Ki [1] of 500 to 3000 nM and a Ki (human μ-opioid receptor; [2]) greater than 500 nM.

Compound `CCOc1ccc(-n2nc3c(C4CCN(CCc5cccnc5)CC4)nnc(C)c3c2C)c(F)c1` [Ex 47, 2-(4-Ethoxy-2-fluorophenyl)-3,4-dimethyl-7-(1-(2-(pyridin-3-yl)ethyl)piperidin-4-yl)-2H-pyrazolo[3,4-d]pyridazine] has a Ki [1] of 500 to 3000 nM and a Ki (human μ-opioid receptor; [2]) greater than 500 nM.

Compound `CCOc1ccc(-n2nc3c(C4CCN(Cc5ncccc5F)CC4)nnc(C)c3c2C)c(F)c1` [Ex 48, 2-(4-Ethoxy-2-fluorophenyl)-7-(1-((3-fluoropyridin-2-yl)methyl)piperidin-4-yl)-3,4-dimethyl-2H-pyrazolo[3,4-d]pyridazine] has a Ki [1] of 500 to 3000 nM and a Ki (human μ-opioid receptor; [2]) greater than 500 nM.

Work on `CCOc1ccc(-n2nc3c(C4CCN(Cc5ncccc5C(F)(F)F)CC4)nnc(C)c3c2C)c(F)c1` [Ex 49, 2-(4-Ethoxy-2-fluorophenyl)-3,4-dimethyl-7-(1-((3-(trifluoromethyl)pyridin-2-yl)methyl)piperidin-4-yl)-2H-pyrazolo[3,4-d]pyridazine] yielded a Ki [1] of 500 to 3000 nM and a Ki (human μ-opioid receptor; [2]) greater than 500 nM.

For `CCOc1ccc(-n2nc3c(C4CCN(Cc5ncccc5OC)CC4)nnc(C)c3c2C)c(F)c1` [Ex 50, 2-(4-Ethoxy-2-fluorophenyl)-7-(1-((3-methoxypyridin-2-yl)methyl)piperidin-4-yl)-3,4-dimethyl-2H-pyrazolo[3,4-d]pyridazine], the Ki [1] was 500 to 3000 nM and the Ki (human μ-opioid receptor; [2]) was greater than 500 nM.

Compound `CCOc1ccc(-n2nc3c(C4CCN(Cc5ncccc5Cl)CC4)nnc(C)c3c2C)c(F)c1` [Ex 51, 7-(1-((3-Chloropyridin-2-yl)methyl)piperidin-4-yl)-2-(4-ethoxy-2-fluorophenyl)-3,4-dimethyl-2H-pyrazolo[3,4-d]pyridazine] has a Ki [1] of 500 to 3000 nM and a Ki (human μ-opioid receptor; [2]) greater than 500 nM.

In the case of `CCOc1ccc(-n2nc3c(C4CCN(Cc5cc(C(F)(F)F)ccn5)CC4)nnc(C)c3c2C)c(F)c1` [Ex 52, 2-(4-Ethoxy-2-fluorophenyl)-3,4-dimethyl-7-(1-((4-(trifluoromethyl)pyridin-2-yl)methyl)piperidin-4-yl)-2H-pyrazolo[3,4-d]pyridazine], the Ki [1] is reported as 3000 to 5000 nM and the Ki (human μ-opioid receptor; [2]) is reported as greater than 500 nM.

`CCOc1ccc(-n2nc3c(C4CCN(Cc5ccc(Cl)cn5)CC4)nnc(C)c3c2C)c(F)c1` [Ex 53, 7-(1-((5-Chloropyridin-2-yl)methyl)piperidin-4-yl)-2-(4-ethoxy-2-fluorophenyl)-3,4-dimethyl-2H-pyrazolo[3,4-d]pyridazine] gave a Ki [1] of 500 to 3000 nM and a Ki (human μ-opioid receptor; [2]) greater than 500 nM.

With `CCOc1ccc(-n2nc3c(C4CCN(Cc5ccc(O)cn5)CC4)nnc(C)c3c2C)c(F)c1` [Ex 54, 6-((4-(2-(4-Ethoxy-2-fluorophenyl)-3,4-dimethyl-2H-pyrazolo[3,4-d]pyridazin-7-yl)piperidin-1-yl)methyl)pyridin-3-ol] the Ki [1] was 500 to 3000 nM and the Ki (human μ-opioid receptor; [2]) was greater than 500 nM.

In the case of `CCOc1ccc(-n2nc3c(C4CCN(Cc5ccc(F)cn5)CC4)nnc(C)c3c2C)c(F)c1` [Ex 55, 2-(4-Ethoxy-2-fluorophenyl)-7-(1-((5-fluoropyridin-2-yl)methyl)piperidin-4-yl)-3,4-dimethyl-2H-pyrazolo[3,4-d]pyridazine], the Ki [1] is reported as 500 to 3000 nM and the Ki (human μ-opioid receptor; [2]) is reported as greater than 500 nM.

For `CCOc1ccc(-n2nc3c(C4CCN(Cc5ccc(C(F)(F)F)cn5)CC4)nnc(C)c3c2C)c(F)c1` [Ex 56, 2-(4-Ethoxy-2-fluorophenyl)-3,4-dimethyl-7-(1-((5-(trifluoromethyl)pyridin-2-yl)methyl)piperidin-4-yl)-2H-pyrazolo[3,4-d]pyridazine], the Ki [1] was 500 to 3000 nM and the Ki (human μ-opioid receptor; [2]) was greater than 500 nM.

Compound `CCOc1ccc(-n2nc3c(C4CCN(CCc5ccncc5)CC4)nnc(C)c3c2C)c(F)c1` [Ex 57, 2-(4-Ethoxy-2-fluorophenyl)-3,4-dimethyl-7-(1-(2-(pyridin-4-yl)ethyl)piperidin-4-yl)-2H-pyrazolo[3,4-d]pyridazine] has a Ki [1] of 500 to 3000 nM and a Ki (human μ-opioid receptor; [2]) greater than 500 nM.

Compound `CCOc1ccc(-n2nc3c(C4CCN(CC(O)c5ccccc5)CC4)nnc(C)c3c2C)c(F)c1` (stereo not shown) [Ex 58, 2-(4-(2-(4-Ethoxy-2-fluorophenyl)-3,4-dimethyl-2H-pyrazolo[3,4-d]pyridazin-7-yl)piperidin-1-yl)-1-phenylethan-1-ol] has a Ki [1] of 500 to 3000 nM and a Ki (human μ-opioid receptor; [2]) greater than 500 nM.

With `CCOc1ccc(-n2nc3c(C#N)nnc(C)c3c2C)c(F)c1` [Ex 59, 2-(4-Ethoxy-2-fluorophenyl)-3,4-dimethyl-2H-pyrazolo[3,4-d]pyridazine-7-carbonitrile] the Ki [1] was no less than 5000 nM and the Ki (human μ-opioid receptor; [2]) was greater than 500 nM.

Work on `CCOc1ccc(-n2nc3c(CN4CCC(c5cccc(O)c5)CC4)nnc(C)c3c2C)c(F)c1` [Ex 60, 3-(1-((2-(4-Ethoxy-2-fluorophenyl)-3,4-dimethyl-2H-pyrazolo[3,4-d]pyridazin-7-yl)methyl)piperidin-4-yl)phenol] yielded a Ki [1] of 500 to 3000 nM and a Ki (human μ-opioid receptor; [2]) greater than 500 nM.

With `CCOc1ccc(-n2nc3c(C(C#N)C(=O)OC(C)(C)C)nnc(C)c3c2C)c(F)c1` (stereo not shown) [Ex 61, tert-Butyl 2-cyano-2-(2-(4-ethoxy-2-fluorophenyl)-3,4-dimethyl-2H-pyrazolo[3,4-d]pyridazin-7-yl)acetate] the Ki [1] was 500 to 3000 nM and the Ki (human μ-opioid receptor; [2]) was greater than 500 nM.

`CCOc1ccc(-n2nc3c(CC#N)nnc(C)c3c2C)c(F)c1` [Ex 62, 2-(2-(4-Ethoxy-2-fluorophenyl)-3,4-dimethyl-2H-pyrazolo[3,4-d]pyridazin-7-yl)acetonitrile] was tested, and the Ki [1] was 500 to 3000 nM and the Ki (human μ-opioid receptor; [2]) was greater than 500 nM.

With `CCOc1ccc(-n2nc3c(CCNC(=O)OC(C)(C)C)nnc(C)c3c2C)c(F)c1` [Ex 63, tert-Butyl (2-(2-(4-ethoxy-2-fluorophenyl)-3,4-dimethyl-2H-pyrazolo[3,4-d]pyridazin-7-yl)ethyl)carbamate] the Ki [1] was no less than 5000 nM and the Ki (human μ-opioid receptor; [2]) was greater than 500 nM.

For `CCOc1ccc(-n2nc3c(C(C#N)(Cc4ccccc4)C(=O)OC(C)(C)C)nnc(C)c3c2C)c(F)c1` (stereo not shown) [Ex 64, tert-Butyl 2-cyano-2-(2-(4-ethoxy-2-fluorophenyl)-3,4-dimethyl-2H-pyrazolo[3,4-d]pyridazin-7-yl)-3-phenylpropanoate], the Ki [1] was no less than 5000 nM and the Ki (human μ-opioid receptor; [2]) was greater than 500 nM.

In the case of `CCOc1ccc(-n2nc3c(C(C#N)Cc4ccccc4)nnc(C)c3c2C)c(F)c1` (stereo not shown) [Ex 65, 2-(2-(4-Ethoxy-2-fluorophenyl)-3,4-dimethyl-2H-pyrazolo[3,4-d]pyridazin-7-yl)-3-phenylpropanenitrile], the Ki [1] is reported as 500 to 3000 nM and the Ki (human μ-opioid receptor; [2]) is reported as greater than 500 nM.
